In ChEMBL document CHEMBL5537115, “New broad-spectrum and potent antibacterial agents with dual-targeting mechanism: Promoting FtsZ polymerization and disrupting bacterial membranes” (Eur J Med Chem, 2024):
The source made the active and inactive calls. No cut-off for these calls is given here.

Experiments:
Streptococcus pyogenes = assay: Antibacterial activity against erythromycin-resistant Streptococcus pyogenes 2 clinical isolate assessed as bacterial growth inhibition incubated for 20 hrs by CLSI based broth microdilution method; type: functional
Escherichia coli [1] = assay: Antibacterial activity against penicillin-susceptible Escherichia coli ATCC25922 assessed as bacterial growth inhibition incubated for 20 hrs by CLSI based broth microdilution method; type: functional
Acinetobacter baumannii [2] = assay: Antibacterial activity against Acinetobacter baumannii ATCC19606 incubated for 18 to 24 hrs; type: functional; conditions: time 18-24 hrs
Staphylococcus aureus [3] = assay: Disruption of inner membrane in Staphylococcus aureus ATCC25923 measured after 12 mins by PI staining based analysis; type: functional, organism-based
Escherichia coli [4] = assay: Disruption of outer membrane in Escherichia coli ATCC25922 at 16 ug/ml measured after 10 mins by NPN dye based analysis; type: functional, organism-based; conditions: dose 16.0 µg/ml
Staphylococcus aureus [5] = assay: Antibacterial activity against Staphylococcus aureus ATCC25923 infected in Kunming mouse model assessed as bacterial growth reduction at 5 to 25 mg/kg, ip; type: functional, organism-based; conditions: dose 5-25 mg/kg
Staphylococcus aureus [6] = assay: Bactericidal activity against Staphylococcus aureus ATCC25923 assessed as log reduction in bacterial growth at 0.125 ug/ml measured for 6 hrs by time-kill assay; type: functional; conditions: dose 0.125 µg/ml
[7] = target: T1, Cell division protein FtsZ (Bacillus subtilis) (UniProt A5Z1V5); assay: Induction of FtsZ polymerization in Bacillus subtilis assessed as bundling of FtsZ protofilaments at 10 ug/ml preincubated for 15 mins followed by GTP addition measured after 10 mins by TEM analysis; conditions: dose 10.0 µg/ml, time 25.0 min
T1 sequence (whole entry): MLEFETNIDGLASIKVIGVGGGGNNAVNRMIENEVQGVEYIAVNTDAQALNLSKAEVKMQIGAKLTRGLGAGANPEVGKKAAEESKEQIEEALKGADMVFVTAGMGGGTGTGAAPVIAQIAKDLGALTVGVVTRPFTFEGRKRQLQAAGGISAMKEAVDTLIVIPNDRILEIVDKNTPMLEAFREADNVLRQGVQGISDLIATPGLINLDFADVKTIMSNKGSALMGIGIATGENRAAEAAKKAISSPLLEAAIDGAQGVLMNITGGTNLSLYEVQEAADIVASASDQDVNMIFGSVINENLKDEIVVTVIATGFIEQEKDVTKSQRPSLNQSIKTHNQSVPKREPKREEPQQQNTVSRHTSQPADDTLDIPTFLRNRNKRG

Enterococcus faecalis = assay: Antibacterial activity against vancomycin-susceptible Enterococcus faecalis ATCC29212 assessed as bacterial growth inhibition incubated for 20 hrs by CLSI based broth microdilution method; type: functional
Staphylococcus aureus [8] = assay: Antibacterial activity against erythromycin-susceptible Staphylococcus aureus ATCC25923 assessed as bacterial growth inhibition incubated for 20 hrs by CLSI based broth microdilution method; type: functional
Staphylococcus aureus [9] = assay: Antibacterial activity against Staphylococcus aureus clinical isolate assessed as bacterial growth inhibition incubated for 20 hrs by CLSI based broth microdilution method; type: functional
Bacillus subtilis = assay: Antibacterial activity against penicillin-susceptible Bacillus subtilis ATCC9372 assessed as bacterial growth inhibition incubated for 20 hrs by CLSI based broth microdilution method; type: functional
Acinetobacter baumannii [10] = assay: Antibacterial activity against Acinetobacter baumannii ATCC19606 assessed as bacterial growth inhibition incubated for 20 hrs by CLSI based broth microdilution method; type: functional
Bacillus pumilus = assay: Antibacterial activity against penicillin-susceptible Bacillus pumilus CMCC63202 assessed as bacterial growth inhibition incubated for 20 hrs by CLSI based broth microdilution method; type: functional
Enterococcus faecium = assay: Antibacterial activity against vancomycin-susceptible Enterococcus faecium ATCC19434 assessed as bacterial growth inhibition incubated for 20 hrs by CLSI based broth microdilution method; type: functional

C[n+]1cc(-c2ccccc2)c(/C=C/c2ccc(C(C)(C)C)cc2)cc1-c1ccc(C(C)(C)C)cc1.[I-]
MIC (Streptococcus pyogenes): 2 µg/mL | MIC (Escherichia coli [1]): 4 µg/mL | MBC (Acinetobacter baumannii [2]): 1 µg/mL | Activity (Staphylococcus aureus [3]): Dose-Dependent Effect | Activity (Escherichia coli [4]): Active | Activity (Staphylococcus aureus [5]): Active | Activity (Staphylococcus aureus [6]): 3.059 log10CFU/ml | Activity [7]: Active | MIC (Enterococcus faecalis): 0.25 µg/mL | MIC (Staphylococcus aureus [8]): 0.062 µg/mL | MIC (Staphylococcus aureus [9]): 0.062 µg/mL | MIC (Bacillus subtilis): 0.125 µg/mL | MIC (Acinetobacter baumannii [10]): 0.5 µg/mL | MIC (Bacillus pumilus): 0.062 µg/mL | MIC (Enterococcus faecium): 0.125 µg/mL
